Measured values from publication PMC11855827, “High-Throughput Screening of Five Compound Libraries for Anthelmintic Activity and Toxicity Leads to the Discovery of Two Flavonoid Compounds” (International Journal of Molecular Sciences, 2025).
Read-outs that look alike come from different tables or passages of the source.

System: C. elegans
Assay: microbe, parasite or virus in culture
Settings: Caenorhabditis elegans
[1] = 0 h, read-out: Percentage of motility inhibition 0 h, Table S2, C. elegans SS assay, 110 μM, 0 h, averages of 4 data points
[2] = 24 h, read-out: Percentage of motility inhibition 24 h, Table S2, C. elegans SS assay, 110 μM, 24 h, averages of 4 data points

Structure (SMILES): CCc1nc(N)nc(N)c1-c1ccc(Cl)cc1 [Pyrimethamine]
- inhibition at 110 µM [1]: 35%
- inhibition at 110 µM [2]: 2%

Structure (SMILES): N[C@@H](CO)C(=O)O [L-Serine]
- inhibition at 110 µM [1]: 0%
- inhibition at 110 µM [2]: 0%

Structure (SMILES): COc1c2occc2cc2ccc(=O)oc12 [Methoxsalen]
- inhibition at 110 µM [1]: 23%
- inhibition at 110 µM [2]: 5%

Structure (SMILES): CC(C)=CCC/C(C)=C/Cc1c(O)c(CC=C(C)C)c2c(c1O)C(=O)C1=C[C@@H]3C[C@H]4C(C)(C)O[C@@](C/C=C(/C)C(=O)O)(C3=O)[C@@]14O2 [Gambogenic acid]
- inhibition at 110 µM [1]: 1%
- inhibition at 110 µM [2]: 8%

Structure (SMILES): C=C[C@@]1(C)Cc2occ(C)c2[C@@H]2OC(=O)C(=C)[C@@H]21 [Isolinderalactone]
- inhibition at 110 µM [1]: 13%
- inhibition at 110 µM [2]: 9%

Structure (SMILES): CN1C(=O)C(O)CC1c1cccnc1 (stereo not shown) [Hydroxycotinine]
- inhibition at 110 µM [1]: 13%
- inhibition at 110 µM [2]: 0%

Structure (SMILES): OCc1c[nH]c2ccccc12 [Indole‐3‐carbinol]
- inhibition at 110 µM [1]: 0%
- inhibition at 110 µM [2]: 18%

Structure (SMILES): OC[C@H]1O[C@@H](Oc2ccc(O)cc2)[C@H](O)[C@@H](O)[C@@H]1O [Arbutin]
- inhibition at 110 µM [1]: 0%
- inhibition at 110 µM [2]: 1%

Structure (SMILES): O=C(Nc1cc(Cl)cc(Cl)c1O)c1c(O)c(Cl)cc(Cl)c1Cl [Oxyclozanide, reference compound]
- inhibition at 110 µM (0 h, read-out: Inhibition (%) 110 μM (0 h), C. elegans L4 motility, 110 μM, 0 h, mean ± SD of four experiments): 10 ± 9%
- inhibition at 110 µM (24 h, read-out: Inhibition (%) 110 μM (24 h), C. elegans L4 motility, 110 μM, 24 h, mean ± SD of four experiments): 93 ± 5%

Structure (SMILES): CC(C)c1nc(CN(C)C(=O)N[C@H](C(=O)N[C@@H](Cc2ccccc2)C[C@H](O)[C@H](Cc2ccccc2)NC(=O)OCc2cncs2)C(C)C)cs1 [Ritonavir]
- inhibition at 110 µM [1]: 2%
- inhibition at 110 µM [2]: 0%

Structure (SMILES): C=CCOC(Cn1ccnc1)c1ccc(Cl)cc1Cl (stereo not shown) [Imazalil]
- inhibition at 110 µM [1]: 35%
- inhibition at 110 µM [2]: 36%

Structure (SMILES): Cc1ccnc2c1NC(=O)c1cccnc1N2C1CC1 [Nevirapine]
- inhibition at 110 µM [1]: 10%
- inhibition at 110 µM [2]: 6%

Structure (SMILES): COc1ccc(-c2oc3c(CC=C(C)C)c(O[C@@H]4O[C@H](CO)[C@@H](O)[C@H](O)[C@H]4O)cc(O)c3c(=O)c2O[C@@H]2O[C@@H](C)[C@H](O)[C@@H](O)[C@H]2O)cc1 [Icariin]
- inhibition at 110 µM (0 h, read-out: Percentage of motility inhibition 0 h): 30%
- inhibition at 110 µM (24 h, read-out: Percentage of motility inhibition 24 h): 12%

Structure (SMILES): N#C[C@H](O[C@@H]1O[C@H](CO[C@@H]2O[C@H](CO)[C@@H](O)[C@H](O)[C@H]2O)[C@@H](O)[C@H](O)[C@H]1O)c1ccccc1 [Amygdalin]
- inhibition at 110 µM [1]: 13%
- inhibition at 110 µM [2]: 0%

Structure (SMILES): CN1Cc2c(ccc3c2OCO3)-c2ccc3cc4c(cc3c21)OCO4 [Dihydrosanguinarine]
- inhibition at 110 µM [1]: 0%
- inhibition at 110 µM [2]: 0%

Structure (SMILES): O=C(O)c1cn(C2CC2)c2cc(N3CCC(O)(COc4ccc(N5C[C@H](CO)OC5=O)cc4F)CC3)c(F)cc2c1=O [Cadazolid]
- inhibition at 110 µM [1]: 5%
- inhibition at 110 µM [2]: 31%

Structure (SMILES): C[C@]12CC[C@@H]3c4ccc(O)cc4CC[C@H]3[C@@H]1CCC2=O [Estrone]
- inhibition at 110 µM [1]: 32%
- inhibition at 110 µM [2]: 0%

Structure (SMILES): COc1cc2c(cc1O)C[C@H]1c3c(cc(O)c(OC)c3-2)CCN1C [Boldine]
- inhibition at 110 µM [1]: 0%
- inhibition at 110 µM [2]: 0%

Structure (SMILES): Cc1cc(C#N)cc(C)c1Oc1nc(Nc2ccc(C#N)cc2)nc(N)c1Br [Etravirine]
- inhibition at 110 µM [1]: 17%
- inhibition at 110 µM [2]: 2%

Structure (SMILES): C[N+](C)(C)[C@@H](Cc1c[nH]c2ccccc12)C(=O)[O-] [Hypaphorine]
- inhibition at 110 µM [1]: 0%
- inhibition at 110 µM [2]: 0%

Structure (SMILES): O=[N+]([O-])c1cn2c(n1)OC[C@@H](OCc1ccc(OC(F)(F)F)cc1)C2 [PA‐824]
- inhibition at 110 µM [1]: 33%
- inhibition at 110 µM [2]: 0%

Structure (SMILES): Nc1ccn(C[C@@H](CO)OCP(=O)(O)O)c(=O)n1 [Cidofovir]
- inhibition at 110 µM [1]: 15%
- inhibition at 110 µM [2]: 3%

Structure (SMILES): CC[C@@H]1/C=C(\C)C[C@H](C)C[C@H](OC)[C@H]2O[C@@](O)(C(=O)C(=O)N3CCCC[C@H]3C(=O)O[C@H](/C(C)=C/[C@@H]3CC[C@@H](O)[C@H](OC)C3)[C@H](C)[C@@H](O)CC1=O)[C@H](C)C[C@@H]2OC [Ascomycin]
- inhibition at 110 µM [1]: 6%
- inhibition at 110 µM [2]: 0%

Structure (SMILES): Nc1cc(C(Cl)=C(Cl)Cl)c(S(N)(=O)=O)cc1S(N)(=O)=O [Clorsulon]
- inhibition at 110 µM [1]: 12%
- inhibition at 110 µM [2]: 5%

Structure (SMILES): C[C@H]1C(=O)O[C@@H]2CC[N+]3([O-])CC=C(COC(=O)[C@](C)(O)[C@]1(C)O)[C@H]23 (stereo partly shown) [Monocrotaline N‐Oxide]
- inhibition at 110 µM [1]: 0%
- inhibition at 110 µM [2]: 0%

Structure (SMILES): C[C@@H]1CC[C@]2(C(=O)O)CC[C@]3(C)C(=CC[C@@H]4[C@@]5(C)C[C@@H](O)[C@@H](O)C(C)(C)[C@@H]5CC[C@]43C)[C@@H]2[C@]1(C)O [Euscaphic acid]
- inhibition at 110 µM [1]: 18%
- inhibition at 110 µM [2]: 27%
